Experimental data published in PMC9120017, “Inhibition mechanism of the chloride channel TMEM16A by the pore blocker 1PBC” (Nature Communications, 2022).
Like-named read-outs stand apart in the source and are kept apart here.

Molecular target: T1, mouse TMEM16A mutant V599A (Mus musculus, UniProt Q8BHY3, V599A)
T1 construct: expressed in transfected cells; host or cells: HEK293T
T1 sequence (Q8BHY3 1-960 V599A): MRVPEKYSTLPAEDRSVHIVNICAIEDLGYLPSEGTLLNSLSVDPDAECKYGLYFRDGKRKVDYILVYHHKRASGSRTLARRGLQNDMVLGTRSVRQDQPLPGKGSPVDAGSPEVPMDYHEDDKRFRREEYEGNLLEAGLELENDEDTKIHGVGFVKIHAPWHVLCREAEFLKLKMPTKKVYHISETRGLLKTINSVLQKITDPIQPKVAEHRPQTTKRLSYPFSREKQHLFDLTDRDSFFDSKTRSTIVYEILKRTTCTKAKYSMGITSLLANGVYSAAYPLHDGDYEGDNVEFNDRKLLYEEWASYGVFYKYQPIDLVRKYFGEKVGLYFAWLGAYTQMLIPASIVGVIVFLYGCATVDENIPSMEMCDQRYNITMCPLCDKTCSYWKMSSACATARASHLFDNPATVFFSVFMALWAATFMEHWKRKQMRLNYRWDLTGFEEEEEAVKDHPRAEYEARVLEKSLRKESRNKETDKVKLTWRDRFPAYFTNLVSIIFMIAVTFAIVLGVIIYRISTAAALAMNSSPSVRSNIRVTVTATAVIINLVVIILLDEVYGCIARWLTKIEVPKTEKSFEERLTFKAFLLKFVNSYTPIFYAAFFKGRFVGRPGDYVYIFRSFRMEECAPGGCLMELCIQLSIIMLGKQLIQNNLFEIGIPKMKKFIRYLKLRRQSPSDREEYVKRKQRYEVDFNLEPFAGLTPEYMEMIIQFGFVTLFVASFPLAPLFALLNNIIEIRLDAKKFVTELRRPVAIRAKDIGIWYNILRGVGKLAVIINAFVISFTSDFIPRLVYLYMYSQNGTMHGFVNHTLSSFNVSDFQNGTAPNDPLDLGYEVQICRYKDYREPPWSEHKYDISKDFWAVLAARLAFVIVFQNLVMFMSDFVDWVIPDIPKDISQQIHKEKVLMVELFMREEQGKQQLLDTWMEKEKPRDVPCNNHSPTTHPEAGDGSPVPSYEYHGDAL
Experiment: Inside-out patch recording of 1PBC block, mutant V599A
Type: cell-based
Conditions: for IC50: 15 µM Ca2+
Description: HEK293T cells (ATCC CRL-1573) were maintained in Dulbecco’s modified Eagle’s medium (DMEM; Sigma-Aldrich) supplemented with 10 U ml^−1 penicillin, 0.1 mg ml^−1 streptomycin (Sigma-Aldrich), 2 mM L-glutamine (Sigma-Aldrich), and 10% FBS (Sigma-Aldrich) in a humidified atmosphere containing 5% CO2 at 37 °C. HEK293S GnTI^− cells (ATCC CRL-3022) were maintained in HyClone HyCell TransFx-H medium (GE Healthcare) supplemented with 10 U ml^−1 penicillin, 0.1 mg ml^−1 streptomycin, 4 mM L-glutamine, 0.15% poloxamer 188 (Sigma-Aldrich), and 1% FBS in an atmosphere containing 5% CO2 at 185 rpm at 37 °C. The ac splice variant of mouse TMEM16A (UniProt ID: Q8BHY3), mouse TMEM16B (UniProt ID: Q8CFW1), or mouse TMEM16F (UniProt ID: Q6P9J9) bearing a 3C cleavage site, a Venus YFP, a Myc tag, and a Streptavidin-binding peptide (SBP) downstream of the open reading frame in a modified pcDNA3.1 vector (Invitrogen) were used as described previously[21],[31]. Mutations were introduced using a modified QuikChange method[58] and were verified by sequencing.
HEK293T cells were transfected with 3–4 μg DNA per 6 cm Petri dish using the calcium phosphate co-precipitation method and were used within 24–96 h after transfection. Recordings were performed on inside-out patches excised from HEK293T cells expressing the construct of interest. Patch pipettes were pulled from borosilicate glass capillaries (O.D. 1.5 mm, I.D. 0.86 mm, Sutter Instrument) and were fire-polished with a microforge (Narishige) before use. Pipette resistance was typically 3–8 MΩ when filled with the recording solutions detailed below. Seal resistance was typically 4 GΩ or higher. Voltage-clamp recordings were made using Axopatch 200B, Digidata 1550, and Clampex 10.7 (Molecular Devices). Analog signals were filtered with the in-built 4-pole Bessel filter at 10 kHz and were digitized at 20 kHz. Solution exchange was achieved using a gravity-fed system through a theta glass pipette mounted on an ultra-fast piezo-driven stepper (Siskiyou). […] All recordings were performed at 20 °C.
A symmetrical ionic condition was used throughout. Stock solution with Ca^2+-EGTA contained 150 mM NaCl, 5.99 mM Ca(OH)2, 5 mM EGTA, and 10 mM HEPES at pH 7.40. Stock solution with EGTA contained 150 mM NaCl, 5 mM EGTA, and 10 mM HEPES at pH 7.40. Free Ca^2+ concentrations were adjusted by mixing the stock solutions at the required ratios calculated using the WEBMAXC program (http://web.stanford.edu/~cpatton/webmaxcS.htm). Patch pipettes were filled with the stock solution with Ca^2+-EGTA, which has a free Ca^2+ concentration of 1 mM. 1PBC (ChemBridge) stock was reconstituted in anhydrous DMSO (Sigma-Aldrich) at 100 mM and stored at −20 °C. Working solutions with 1PBC were prepared by serial dilution. Unless otherwise stated, experiments were performed at a saturating Ca^2+ concentration as shown in Supplementary Table 1 and the primary data were corrected for current rundown as described previously[21],[25].
Concentration-response relations, obtained from the ratio of the I-V plots before and after the application of the blocker, were fitted to the Hill equation,1 I/Imax=1/1+IC50/[blocker]^h where I/Imax is the normalized current responses, IC50 defines the concentration at which inhibition is at its half-maximum, and h is the Hill coefficient.

N#Cc1c(C(F)(F)F)cc(O)n2c1nc1ccccc12 [1PBC]
IC50 (0 mV): 69.5 µM
remaining activity at 3 µM (0 mV, 1PBC conc 3, read-out: relative current in 1PBC (avr)): 93.5%
remaining activity at 10 µM (0 mV, 1PBC conc 10, read-out: relative current in 1PBC (avr)): 87.7%
remaining activity at 30 µM (0 mV, 1PBC conc 30, read-out: relative current in 1PBC (avr)): 72%
remaining activity at 100 µM (0 mV, 1PBC conc 100, read-out: relative current in 1PBC (avr)): 39.4%
remaining activity at 3 µM (3 µM 1PBC, +80 mV, saturating Ca2+ (15 µM), read-out: I/Imax): 93.3%
remaining activity at 3 µM (3 µM 1PBC, -80 mV, saturating Ca2+ (15 µM), read-out: I/Imax): 94.9%
remaining activity at 10 µM (10 µM 1PBC, +80 mV, saturating Ca2+ (15 µM), read-out: I/Imax): 84%
remaining activity at 10 µM (10 µM 1PBC, -80 mV, saturating Ca2+ (15 µM), read-out: I/Imax): 91.7%
remaining activity at 30 µM (30 µM 1PBC, +80 mV, saturating Ca2+ (15 µM), read-out: I/Imax): 62.6%
remaining activity at 30 µM (30 µM 1PBC, -80 mV, saturating Ca2+ (15 µM), read-out: I/Imax): 78.1%
remaining activity at 100 µM (100 µM 1PBC, +80 mV, saturating Ca2+ (15 µM), read-out: I/Imax): 27.8%
remaining activity at 100 µM (100 µM 1PBC, -80 mV, saturating Ca2+ (15 µM), read-out: I/Imax): 50.8%
IC50 (20 mV): 61.3 µM
remaining activity at 3 µM (20 mV, 1PBC conc 3, read-out: relative current in 1PBC (avr)): 93.3%
remaining activity at 10 µM (20 mV, 1PBC conc 10, read-out: relative current in 1PBC (avr)): 86.6%
remaining activity at 30 µM (20 mV, 1PBC conc 30, read-out: relative current in 1PBC (avr)): 69.3%
remaining activity at 100 µM (20 mV, 1PBC conc 100, read-out: relative current in 1PBC (avr)): 36%
IC50 (40 mV): 55.5 µM
remaining activity at 3 µM (40 mV, 1PBC conc 3, read-out: relative current in 1PBC (avr)): 93.6%
remaining activity at 10 µM (40 mV, 1PBC conc 10, read-out: relative current in 1PBC (avr)): 86.2%
remaining activity at 30 µM (40 mV, 1PBC conc 30, read-out: relative current in 1PBC (avr)): 67.1%
remaining activity at 100 µM (40 mV, 1PBC conc 100, read-out: relative current in 1PBC (avr)): 32.9%
IC50 (60 mV): 48.9 µM
remaining activity at 3 µM (60 mV, 1PBC conc 3, read-out: relative current in 1PBC (avr)): 92.4%
remaining activity at 10 µM (60 mV, 1PBC conc 10, read-out: relative current in 1PBC (avr)): 84.6%
remaining activity at 30 µM (60 mV, 1PBC conc 30, read-out: relative current in 1PBC (avr)): 64.2%
remaining activity at 100 µM (60 mV, 1PBC conc 100, read-out: relative current in 1PBC (avr)): 30%
log-fold IC50 (change of mutant vs WT) (80 mV): 1.35
IC50 (80 mV): 45.8 µM
remaining activity at 3 µM (80 mV, 1PBC conc 3, read-out: relative current in 1PBC (avr)): 93.3%
remaining activity at 10 µM (80 mV, 1PBC conc 10, read-out: relative current in 1PBC (avr)): 84%
remaining activity at 30 µM (80 mV, 1PBC conc 30, read-out: relative current in 1PBC (avr)): 62.6%
remaining activity at 100 µM (80 mV, 1PBC conc 100, read-out: relative current in 1PBC (avr)): 27.8%
IC50 (100 mV): 45 µM
remaining activity at 3 µM (100 mV, 1PBC conc 3, read-out: relative current in 1PBC (avr)): 94.2%
remaining activity at 10 µM (100 mV, 1PBC conc 10, read-out: relative current in 1PBC (avr)): 83.7%
remaining activity at 30 µM (100 mV, 1PBC conc 30, read-out: relative current in 1PBC (avr)): 62.5%
remaining activity at 100 µM (100 mV, 1PBC conc 100, read-out: relative current in 1PBC (avr)): 26.8%
IC50 (120 mV): 45.1 µM
remaining activity at 3 µM (120 mV, 1PBC conc 3, read-out: relative current in 1PBC (avr)): 95.5%
remaining activity at 10 µM (120 mV, 1PBC conc 10, read-out: relative current in 1PBC (avr)): 83.7%
remaining activity at 30 µM (120 mV, 1PBC conc 30, read-out: relative current in 1PBC (avr)): 62.1%
remaining activity at 100 µM (120 mV, 1PBC conc 100, read-out: relative current in 1PBC (avr)): 27%
IC50 (140 mV): 48.5 µM
remaining activity at 3 µM (140 mV, 1PBC conc 3, read-out: relative current in 1PBC (avr)): 97.8%
remaining activity at 10 µM (140 mV, 1PBC conc 10, read-out: relative current in 1PBC (avr)): 86.2%
remaining activity at 30 µM (140 mV, 1PBC conc 30, read-out: relative current in 1PBC (avr)): 63.1%
remaining activity at 100 µM (140 mV, 1PBC conc 100, read-out: relative current in 1PBC (avr)): 28.2%
